Experimental data from paper PMC11858513, “Antibiofilm Activities of Tritrpticin Analogs Against Pathogenic Pseudomonas aeruginosa PA01 Strains” (Molecules, 2025).
Values after ≈ are worked out from the molar mass of the structure shown. Residues, ends and D or L forms follow the SMILES beside them.

Tests used:
P. aeruginosa PAO1 [1] = type: cell-based, Pseudomonas aeruginosa; settings: Table 5; PAO1, 1x BM2; biofilms on pegs, cells plated and counted; three biological replicates
Method: (§1) We note the close agreement with the MBIC and MBEC values determined by the fluorescence and CV methods, similar to what we found in our previous work for an S. aureus MRSA strain [23]. We also re-evaluated the MBEC values that are measured using the Calgary biofilm device (CBD), where biofilms form on pegs, rather than at the bottom of the 96-well plates. […] In particular, we find that the single Pro9Ala Tritrp-P9A-substituted version has better MIC, MBIC and MBEC activities than the parent peptide as well as the Tritrp-P59A analog with both prolines substituted to Ala.
Figure 5 The MBEC values for the peptides were assessed against P. aeruginosa PAO1 in the presence of 1× BM2 medium. The eradication of biofilm cells was determined for the peptides using the counting of biofilm cells formed by Pa PAO1. Three biological replicates were run for each test sample, and the mean was calculated for counted cell values. Data points with error bars indicate the standard deviation (±SD).
(§2) The methods to determine the MIC, MBIC and MBEC have been described in detail in our previous publication. The green fluorescent protein (GFP)-producing P. aeruginosa and S. aureus strains that were used in this work were also described in the earlier publication. Fluorescence detection was used as the main method to estimate the number of cells entrapped in the biofilm matrix. The methodology used for evaluation of the antibiofilm properties against an original Pseudomonas PA01 strain by crystal violet dye staining and the use of the Calgary biofilm device has been described elsewhere. The regular PA01 strain was provided by Dr. J. Harrison, Calgary. All measurements were carried out on an Eppendorf AF2200 plate reader. Every 96-well plate included controls for bacterial cell growth without peptide treatment and media alone. All measurements were carried out in triplicate, and the values in the figures represent the average and the error bars are standard deviation.

S. aureus GFP [2] = assay: MBIC, GFP fluorescence method; type: cell-based, Staphylococcus aureus; settings: Table 4, Sa GFP, 10% TSB and 0.1% glucose, mean of three biological replicates
Method: (§3) Figure 3 The MIC (A), MBIC (B) and MBEC (C) values for the tritrpticin analog peptides were assessed against Sa GFP. The MIC values were determined by measuring the absorbance of bacterial cells at 600 nm. The MBIC and MBEC values were determined by recording the fluorescence at 480 nm and 530 nm from the biofilms of GFP-expressing Sa. Three biological replicates were run for each test sample, and the mean was calculated for the recorded absorption or fluorescence values. In the graphs, the error bars represent the standard deviation (±SD).
as §2

P. aeruginosa PAO1 [3] = type: cell-based; settings: for MBRC (CV at 595 nm) LD50: PAO1; for MBIC (CV at 595 nm) LD50 / MBIC (CV at 595 nm) LD90 / MBRC (CV at 595 nm) LD90: Table 5, PAO1, 1x BM2, crystal violet at 595 nm, mean of three biological replicates; for MBRC (CV at 595 nm) LD90: minimum biofilm reduction concentration
Method: as §1
(§4) Figure 4 The MIC (A), MBIC (B) and MBRC (C) values for the peptides were assessed against P. aeruginosa PAO1 in the presence of 1× BM2. The inhibition of planktonic cells, the inhibition of biofilm cells and the reduction in biofilm cells were determined for the peptides by recording of the planktonic cells at 600 nm and quantification of biofilms formed by Pa PAO1 using crystal violet at 595 nm, respectively. Three biological replicates were run for each test sample, and the mean was calculated for the recorded absorption values. Data points with error bars indicate the standard deviation (±SD).
(§5) Figure 6 The MIC (A), MBIC (B) and MBEC (C) values for the tritrpticin-Lys derivatives against P. aeruginosa PAO1 were assessed by the crystal violet (CV) assay for the measurement of inhibition of biofilm formation and eradication of biofilm cells, respectively. The biofilm cells were rinsed, stained with 0.1% crystal violet for 15 min and then rinsed again. The CV was released from biofilm cells by the addition of 95% ethanol and quantified by reading on a spectrometer at 595 nm. Three replicates were run for each sample, the values were averaged and the error bars represent the standard deviation (±SD).
as §2

P. aeruginosa PAO1 GFP [4] = assay: MBEC, biofilm eradication, GFP fluorescence method; type: cell-based, Pseudomonas aeruginosa; settings: Table 2, BM2 medium, mean of three biological replicates
Method: (§6) Figure 1 The MIC (A), MBIC (B) and MBEC (C) values for the tritrpticin analog peptides were assessed against Pa PAO1 GFP. The MIC values were determined by measuring the absorbance of bacterial cells at 600 nm. The MBIC and MBEC values were determined by recording the fluorescence at 480 nm and 530 nm from the biofilms of GFP-expressing PAO1. Three biological replicates were run for each test sample, and the mean was calculated for the recorded absorption or fluorescence values. In the graphs, the error bars represent the standard deviation (±SD).
(§7) Figure 2 The MIC (A), MBIC (B) and MBEC (C) values for the tritrpticin-Lys derivative peptides were assessed against Pa PAO1 GFP. The MIC values were determined by measuring the absorbance of bacterial cells at 600 nm. The MBIC and MBEC values were determined by recording the fluorescence at 480 nm and 530 nm from the biofilms of GFP-expressing PAO1. Three replicates were run for each sample, the values were averaged and the error bars represent the standard deviation (±SD).
as §2

P. aeruginosa PAO1 [5] = type: cell-based, Pseudomonas aeruginosa; settings: Table 5; regular PAO1 (no GFP), 1x BM2; absorbance 600 nm; mean of three biological replicates
Method: as §4, §5, §2

S. aureus GFP [6] = assay: MBEC, GFP fluorescence method; type: cell-based, Staphylococcus aureus; settings: Table 4, Sa GFP, 10% TSB and 0.1% glucose, mean of three biological replicates
Method: as §3, §2

P. aeruginosa PAO1 GFP [7] = assay: MIC against planktonic cells, absorbance at 600 nm; type: cell-based, Pseudomonas aeruginosa; settings: Table 2, BM2 medium, absorbance 600 nm, mean of three biological replicates
Method: as §6, §7, §2

S. aureus GFP [8] = assay: MIC against planktonic cells, absorbance at 600 nm; type: cell-based, Staphylococcus aureus; settings: Table 4; Sa GFP, 10% TSB and 0.1% glucose; absorbance 600 nm; mean of three biological replicates
Method: as §3, §2

S. aureus GFP [9] = type: cell-based, Staphylococcus aureus; settings: Table 4; Sa GFP; lowest concentration of peptide with no bacterial growth seen on the spot agar plate
Text: as §2

P. aeruginosa PAO1 GFP [10] = assay: MBIC, prevention of biofilm formation, GFP fluorescence method; type: cell-based, Pseudomonas aeruginosa; settings: Table 2, BM2 medium, mean of three biological replicates
Method: as §6, §7, §2

SMILES	MBEC from Calgary Biofilm Device (CBD) LD50 (P. aeruginosa PAO1 [1]) [µmol/L]	MBEC from Calgary Biofilm Device (CBD) LD90 (P. aeruginosa PAO1 [1]) [µmol/L]	MBIC at 488 and 530 nm LD50 (S. aureus GFP [2]) [µmol/L]	MBIC at 488 and 530 nm LD90 (S. aureus GFP [2]) [µmol/L]	MBRC (CV at 595 nm) LD50 (P. aeruginosa PAO1 [3]) [µmol/L]	MBIC (CV at 595 nm) LD50 (P. aeruginosa PAO1 [3]) [µmol/L]	MBIC (CV at 595 nm) LD90 (P. aeruginosa PAO1 [3]) [µmol/L]	MBRC (CV at 595 nm) LD90 (P. aeruginosa PAO1 [3]) [µmol/L]	MBEC at 488 and 530 nm LD50 (P. aeruginosa PAO1 GFP [4]) [µmol/L]	MBEC at 488 and 530 nm LD90 (P. aeruginosa PAO1 GFP [4]) [µmol/L]	MIC at 600 nm LD50 (P. aeruginosa PAO1 [5]) [µmol/L]	MIC at 600 nm LD90 (P. aeruginosa PAO1 [5]) [µmol/L]	MBEC at 488 and 530 nm LD50 (S. aureus GFP [6]) [µmol/L]	MBEC at 488 and 530 nm LD90 (S. aureus GFP [6]) [µmol/L]	MIC at 600 nm LD50 (P. aeruginosa PAO1 GFP [7]) [µmol/L]	MIC at 600 nm LD90 (P. aeruginosa PAO1 GFP [7]) [µmol/L]	MIC at 600 nm LD50 (S. aureus GFP [8]) [µmol/L]	MIC at 600 nm LD90 (S. aureus GFP [8]) [µmol/L]	MBC Agar Plate (S. aureus GFP [9]) [µmol/L]	MBIC at 488 and 530 nm LD50 (P. aeruginosa PAO1 GFP [10]) [µmol/L]	other results
CC(C)C[C@H](NC(=O)[C@H](Cc1ccccc1)NC(=O)[C@@H]1CCCN1C(=O)[C@H](Cc1c[nH]c2ccccc12)NC(=O)[C@H](Cc1c[nH]c2ccccc12)NC(=O)[C@H](Cc1c[nH]c2ccccc12)NC(=O)[C@@H]1CCCN1C(=O)[C@H](Cc1ccccc1)NC(=O)[C@H](CCCCN)NC(=O)[C@H](CCCCN)NC(=O)[C@@H](N)C(C)C)C(=O)N[C@@H](CCCCN)C(=O)N[C@@H](CCCCN)C(N)=O [Tritrp-Lys] (H-VKKFPWWWPFLKK-NH2)	128	128	2	2	64	32	32	64	64	64	32 (≈ 57.3 µg/mL)	32 (≈ 57.3 µg/mL)	1	2	32 (≈ 57.3 µg/mL)	32 (≈ 57.3 µg/mL)	1 (≈ 1.79 µg/mL)	2 (≈ 3.58 µg/mL)	4 (≈ 7.16 µg/mL)	16	MBIC at 488 and 530 nm LD90 (P. aeruginosa PAO1 GFP [10]): 32 µmol/L
CC(C)C[C@H](NC(=O)[C@H](Cc1ccccc1)NC(=O)[C@@H]1CCCN1C(=O)[C@H](Cc1c[nH]c2ccccc12)NC(=O)[C@H](Cc1c[nH]c2ccccc12)NC(=O)[C@H](Cc1c[nH]c2ccccc12)NC(=O)[C@H](C)NC(=O)[C@H](Cc1ccccc1)NC(=O)[C@H](CCCNC(=N)N)NC(=O)[C@H](CCCNC(=N)N)NC(=O)[C@@H](N)C(C)C)C(=O)N[C@@H](CCCNC(=N)N)C(=O)N[C@@H](CCCNC(=N)N)C(N)=O [Tritrp-P5A] (H-VRRFAWWWPFLRR-NH2)	32	128	1	4	32	8	8	32	64	64	4 (≈ 7.5 µg/mL)	8 (≈ 15 µg/mL)	2	4	4 (≈ 7.5 µg/mL)	8 (≈ 15 µg/mL)	1 (≈ 1.88 µg/mL)	2 (≈ 3.75 µg/mL)	4 (≈ 7.5 µg/mL)	4	MBIC at 488 and 530 nm LD90 (P. aeruginosa PAO1 GFP [10]): 8 µmol/L
CC(C)C[C@H](NC(=O)[C@H](Cc1ccccc1)NC(=O)[C@H](C)NC(=O)[C@H](Cc1c[nH]c2ccccc12)NC(=O)[C@H](Cc1c[nH]c2ccccc12)NC(=O)[C@H](Cc1c[nH]c2ccccc12)NC(=O)[C@@H]1CCCN1C(=O)[C@H](Cc1ccccc1)NC(=O)[C@H](CCCCN)NC(=O)[C@H](CCCCN)NC(=O)[C@@H](N)C(C)C)C(=O)N[C@@H](CCCCN)C(=O)N[C@@H](CCCCN)C(N)=O [Tritrp-P9A-Lys] (H-VKKFPWWWAFLKK-NH2)	64	64	2	4	32	8	16	64	4	64	4 (≈ 7.05 µg/mL)	8 (≈ 14.1 µg/mL)	1	8	4 (≈ 7.05 µg/mL)	8 (≈ 14.1 µg/mL)	1 (≈ 1.76 µg/mL)	4 (≈ 7.05 µg/mL)	8 (≈ 14.1 µg/mL)	8	MBIC at 488 and 530 nm LD90 (P. aeruginosa PAO1 GFP [10]): 8 µmol/L
